Measurements from ChEMBL document CHEMBL1201862, “PubChem BioAssay data set” (2004).
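Five compound concentrations were applied to cells in 96-well plates for 48 hours; endpoints were derived by simple linear interpolation of the resulting dose-response curve. Abbreviation: GI50, concentration required for 50% inhibition of growth.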 Activity calls are given as the source filed them. Cut-off read from the data, not from the text of the source: active = GI50 up to about 1.1 µM and inactive = higher.

Assays:
Assay in all cases: growth of human tumour cells (NCI), 48 h
RXF 393 = system: RXF 393
SNB-78 = system: SNB-78
SF-539 = system: SF-539
COLO 205 = system: COLO 205
EKVX = system: EKVX
CAKI-1 = system: CAKI-1
SK-MEL-2 = system: SK-MEL-2
HOP-92 = system: HOP-92
RPMI-8226 = system: RPMI-8226
HT-29 = system: HT-29
MCF7 = system: MCF7
CCRF-CEM = system: CCRF-CEM
NCI/ADR-RES = system: NCI/ADR-RES
SF-268 = system: SF-268
SK-MEL-28 = system: SK-MEL-28
NCI-H226 = system: NCI-H226
HCT-116 = system: HCT-116
MOLT-4 = system: MOLT-4
NCI-H522 = system: NCI-H522
SR = system: SR

Q: Which results are given for `Cc1cccc2nc3c(C(=O)NCCN(C)C)cccc3cc12`?
A: GI50 (RXF 393): 1.45 µM (inactive); GI50 (SNB-78): 2.62 µM (inactive); GI50 (SF-539): 2.01 µM (inactive); GI50 (COLO 205): 0.681 µM (active); GI50 (EKVX): 1.99 µM (inactive); GI50 (CAKI-1): 0.07 µM (active); GI50 (SK-MEL-2): 1.88 µM (inactive); GI50 (HOP-92): 0.776 µM (active); GI50 (RPMI-8226): 0.789 µM (active); GI50 (HT-29): 0.791 µM (active); GI50 (MCF7): 2.2 µM (inactive); GI50 (CCRF-CEM): 1.25 µM (inactive); GI50 (NCI/ADR-RES): 1.95 µM (inactive); GI50 (SF-268): 1.68 µM (inactive); GI50 (SK-MEL-28): 1.85 µM (inactive); GI50 (NCI-H226): 1.07 µM (active); GI50 (HCT-116): 0.668 µM (active); GI50 (MOLT-4): 0.337 µM (active)

Q: What does the source list for `CN(C)CCNC(=O)c1cccc2[nH]c(-c3ccc(Cl)cc3)nc12`?
A: GI50 (RXF 393): 8.57 µM (inactive); GI50 (SNB-78): 15.9 µM (inactive); GI50 (SF-539): 4.65 µM (inactive); GI50 (COLO 205): 2.97 µM (inactive); GI50 (EKVX): 12.4 µM (inactive); GI50 (CAKI-1): 2.82 µM (inactive); GI50 (SK-MEL-2): 13.4 µM (inactive); GI50 (HOP-92): 5.25 µM (inactive); GI50 (RPMI-8226): 2.76 µM (inactive); GI50 (NCI-H522): 6.14 µM (inactive); GI50 (HT-29): 4.24 µM (inactive); GI50 (MCF7): 3.66 µM (inactive); GI50 (CCRF-CEM): 6.21 µM (inactive); GI50 (NCI/ADR-RES): 5.42 µM (inactive); GI50 (SF-268): 12.7 µM (inactive); GI50 (SK-MEL-28): 17.1 µM (inactive); GI50 (NCI-H226): 4.59 µM (inactive); GI50 (HCT-116): 3.28 µM (inactive); GI50 (MOLT-4): 2.03 µM (inactive)

Q: For `CC(=O)NNc1nc(C)c(C(=O)NNC(=O)C(=O)Nc2cccc(C(C)=O)c2)s1`, which GI50 (RXF 393) is on record?
A: 16.5 µM (inactive)

Q: What about the GI50 (SR) of the same molecule?
A: 18 µM (inactive)

Q: And the GI50 (SNB-78)?
A: 75.3 µM (inactive)

Q: And the GI50 (SF-539)?
A: 18.7 µM (inactive)

Q: What about the GI50 (COLO 205) of the same molecule?
A: 53.6 µM (inactive)

Q: What about the GI50 (EKVX) of the same molecule?
A: 42.7 µM (inactive)

Q: What about the GI50 (CAKI-1) of the same molecule?
A: 16.4 µM (inactive)

Q: What about the GI50 (SK-MEL-2) of the same molecule?
A: 36.1 µM (inactive)

Q: And the GI50 (HOP-92)?
A: 13.4 µM (inactive)

Q: What about the GI50 (RPMI-8226) of the same molecule?
A: 40.1 µM (inactive)

Q: And the GI50 (NCI-H522)?
A: 15.2 µM (inactive)

Q: And the GI50 (HT-29)?
A: 50.2 µM (inactive)

Q: What about the GI50 (CCRF-CEM) of the same molecule?
A: 23.2 µM (inactive)

Q: And the GI50 (SF-268)?
A: 21.5 µM (inactive)

Q: What about the GI50 (SK-MEL-28) of the same molecule?
A: 19.7 µM (inactive)

Q: What about the GI50 (NCI-H226) of the same molecule?
A: 22.8 µM (inactive)

Q: And the GI50 (HCT-116)?
A: 31.8 µM (inactive)

Q: What about the GI50 (MOLT-4) of the same molecule?
A: 45.3 µM (inactive)

Q: With `CC(NCCS(=O)(=O)O)C(=O)O` (stereo unspecified) as the molecule, how does the GI50 (RXF 393) read?
A: > 100 µM (inactive)

Q: What about the GI50 (SNB-78) of the same molecule?
A: 99.8 µM (inactive)

Q: What about the GI50 (SF-539) of the same molecule?
A: > 100 µM (inactive)

Q: And the GI50 (COLO 205)?
A: > 100 µM (inactive)

Q: And the GI50 (EKVX)?
A: > 100 µM (inactive)

Q: What about the GI50 (CAKI-1) of the same molecule?
A: > 100 µM (inactive)

Q: What about the GI50 (SK-MEL-2) of the same molecule?
A: > 100 µM (inactive)

Q: And the GI50 (HOP-92)?
A: > 100 µM (inactive)

Q: What about the GI50 (RPMI-8226) of the same molecule?
A: > 100 µM (inactive)

Q: And the GI50 (NCI-H522)?
A: > 100 µM (inactive)

Q: And the GI50 (HT-29)?
A: > 100 µM (inactive)

Q: What about the GI50 (MCF7) of the same molecule?
A: > 100 µM (inactive)

Q: And the GI50 (CCRF-CEM)?
A: > 100 µM (inactive)

Q: And the GI50 (NCI/ADR-RES)?
A: > 100 µM (inactive)

Q: What about the GI50 (SF-268) of the same molecule?
A: > 100 µM (inactive)

Q: And the GI50 (SK-MEL-28)?
A: > 100 µM (inactive)

Q: What about the GI50 (NCI-H226) of the same molecule?
A: > 100 µM (inactive)

Q: What about the GI50 (HCT-116) of the same molecule?
A: > 100 µM (inactive)

Q: And the GI50 (MOLT-4)?
A: > 100 µM (inactive)

Q: With `CC(C)C1NC(=O)CC(c2ccccc2)N(N=O)C1c1ccccc1` (stereo unspecified) as the molecule, how does the GI50 (RXF 393) read?
A: > 100 µM (inactive)

Q: What about the GI50 (SNB-78) of the same molecule?
A: > 100 µM (inactive)

Q: What about the GI50 (SF-539) of the same molecule?
A: > 100 µM (inactive)

Q: And the GI50 (COLO 205)?
A: > 100 µM (inactive)

Q: What about the GI50 (EKVX) of the same molecule?
A: > 100 µM (inactive)

Q: What about the GI50 (CAKI-1) of the same molecule?
A: > 100 µM (inactive)

Q: What about the GI50 (SK-MEL-2) of the same molecule?
A: > 100 µM (inactive)

Q: What about the GI50 (HOP-92) of the same molecule?
A: > 51.3 µM (inactive)

Q: What about the GI50 (RPMI-8226) of the same molecule?
A: 81.8 µM (inactive)

Q: What about the GI50 (NCI-H522) of the same molecule?
A: 37.5 µM (inactive)

Q: What about the GI50 (HT-29) of the same molecule?
A: > 100 µM (inactive)

Q: What about the GI50 (MCF7) of the same molecule?
A: > 100 µM (inactive)

Q: And the GI50 (CCRF-CEM)?
A: > 100 µM (inactive)

Q: What about the GI50 (NCI/ADR-RES) of the same molecule?
A: > 100 µM (inactive)

Q: What about the GI50 (SF-268) of the same molecule?
A: > 100 µM (inactive)

Q: And the GI50 (SK-MEL-28)?
A: > 100 µM (inactive)

Q: And the GI50 (NCI-H226)?
A: > 100 µM (inactive)

Q: What about the GI50 (HCT-116) of the same molecule?
A: > 100 µM (inactive)

Q: And the GI50 (MOLT-4)?
A: > 100 µM (inactive)

Q: What does the source list for `CO/C=C1\OC(=O)C=C1OC`?
A: GI50 (RXF 393): > 100 µM (inactive); GI50 (SNB-78): > 100 µM (inactive); GI50 (SF-539): > 100 µM (inactive); GI50 (COLO 205): > 100 µM (inactive); GI50 (EKVX): > 100 µM (inactive); GI50 (CAKI-1): > 100 µM (inactive); GI50 (SK-MEL-2): > 100 µM (inactive); GI50 (HOP-92): > 100 µM (inactive); GI50 (RPMI-8226): > 100 µM (inactive); GI50 (NCI-H522): > 100 µM (inactive); GI50 (HT-29): > 100 µM (inactive); GI50 (MCF7): > 100 µM (inactive); GI50 (CCRF-CEM): > 100 µM (inactive); GI50 (NCI/ADR-RES): > 100 µM (inactive); GI50 (SF-268): > 100 µM (inactive); GI50 (SK-MEL-28): > 100 µM (inactive); GI50 (NCI-H226): > 100 µM (inactive); GI50 (HCT-116): > 100 µM (inactive); GI50 (MOLT-4): > 100 µM (inactive)

Q: `O=C(O)CNS(=O)(=O)c1ccc(NC(=O)Nc2ccccc2)cc1` was tested. Which GI50 (RXF 393) did it give?
A: > 100 µM (inactive)

Q: And the GI50 (SNB-78)?
A: > 100 µM (inactive)

Q: And the GI50 (SF-539)?
A: > 100 µM (inactive)

Q: What about the GI50 (COLO 205) of the same molecule?
A: > 100 µM (inactive)

Q: What about the GI50 (EKVX) of the same molecule?
A: > 100 µM (inactive)

Q: And the GI50 (CAKI-1)?
A: > 100 µM (inactive)

Q: And the GI50 (SK-MEL-2)?
A: > 100 µM (inactive)

Q: And the GI50 (HOP-92)?
A: > 100 µM (inactive)

Q: And the GI50 (RPMI-8226)?
A: > 100 µM (inactive)

Q: What about the GI50 (NCI-H522) of the same molecule?
A: > 100 µM (inactive)

Q: What about the GI50 (HT-29) of the same molecule?
A: > 100 µM (inactive)

Q: What about the GI50 (MCF7) of the same molecule?
A: > 100 µM (inactive)

Q: What about the GI50 (CCRF-CEM) of the same molecule?
A: > 100 µM (inactive)

Q: And the GI50 (NCI/ADR-RES)?
A: > 100 µM (inactive)

Q: What about the GI50 (SF-268) of the same molecule?
A: > 100 µM (inactive)

Q: And the GI50 (SK-MEL-28)?
A: > 100 µM (inactive)

Q: And the GI50 (NCI-H226)?
A: > 100 µM (inactive)

Q: What about the GI50 (HCT-116) of the same molecule?
A: > 100 µM (inactive)

Q: And the GI50 (MOLT-4)?
A: > 100 µM (inactive)
